Key:
[1] = target: human FPR2 (Homo sapiens (Human), UniProt P25090); test: FPR2 cyclic adenosine monophosphate (cAMP) assay; assay type: cell-based; details: CHO cells overexpressing human FPR2; forskolin 5 µM; inhibition of cAMP production; read-out: hFPR2 cAMP2 EC50
Outline: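 Inhibition of forskolin-driven (5 µM) cAMP, with 200 µM IBMX, measured in human FPR2-expressing CHO cells, 2,000 per well, 30 min at room temperature; compounds tested 0.020 nM to 100 µM in 1% DMSO. HTRF 665/590 ratio converted to cAMP via calibration curve, then 4-parameter fit.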

[2] = target: human FPR1 (Homo sapiens (Human), UniProt P21462); test: FPR1 cyclic adenosine monophosphate (cAMP) assay; assay type: cell-based; details: CHO cells overexpressing human FPR1; forskolin 10 µM; inhibition of cAMP production; read-out: hFPR1 cAMP EC50
human FPR1, sequence (P21462 whole entry): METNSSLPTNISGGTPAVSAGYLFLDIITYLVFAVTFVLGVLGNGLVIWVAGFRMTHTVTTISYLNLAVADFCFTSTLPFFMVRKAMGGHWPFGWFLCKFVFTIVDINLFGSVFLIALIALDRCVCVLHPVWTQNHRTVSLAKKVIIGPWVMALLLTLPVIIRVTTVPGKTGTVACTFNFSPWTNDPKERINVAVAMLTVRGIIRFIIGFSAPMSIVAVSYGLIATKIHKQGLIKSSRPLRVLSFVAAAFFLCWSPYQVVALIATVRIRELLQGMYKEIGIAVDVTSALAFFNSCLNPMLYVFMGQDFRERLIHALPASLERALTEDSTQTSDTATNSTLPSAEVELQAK
Outline: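 Human FPR1-expressing CHO cells were used at 4,000 per well, with compound at 0.020 nM–100 µM in 1% DMSO. Potency came from a 4-parameter logistic fit.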

human FPR2, sequence (P25090 whole entry): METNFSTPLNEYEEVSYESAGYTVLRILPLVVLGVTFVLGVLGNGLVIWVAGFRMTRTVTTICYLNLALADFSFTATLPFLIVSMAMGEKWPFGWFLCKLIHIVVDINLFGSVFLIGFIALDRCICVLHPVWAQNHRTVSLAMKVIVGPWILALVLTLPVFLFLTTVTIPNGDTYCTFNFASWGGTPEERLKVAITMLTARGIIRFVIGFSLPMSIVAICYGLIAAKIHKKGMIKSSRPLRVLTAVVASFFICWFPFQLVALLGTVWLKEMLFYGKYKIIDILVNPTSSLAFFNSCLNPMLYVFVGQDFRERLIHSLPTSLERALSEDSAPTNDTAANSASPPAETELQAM

SMILES	EC50 [1] [nM]	EC50 [2] [nM]
COCC(C(=O)N(C)C)n1ccc(C)c(N2C[C@@H](c3ccc(OC)cc3)[C@H](NC(=O)c3ccc(OC(F)F)cc3)C2=O)c1=O (some centres unmarked) [Example 295]	8.9	0.6
COc1cc(F)c([C@@H]2CN(c3c(C)ccn(CC(OC)C(F)(F)F)c3=O)C(=O)[C@H]2NC(=O)c2ccc(OC(F)(F)F)cc2)c(F)c1 (some centres unmarked) [Example 297]	9	0.1
COc1cc(F)c([C@@H]2CN(c3cccn(C4CCOC4)c3=O)C(=O)[C@H]2NC(=O)c2ccc(OC(F)(F)F)cc2)c(F)c1 (some centres unmarked) [Example 298]	9	8.5
COc1cc(F)c([C@@H]2CN(c3cc(NC(C)=O)cn(C)c3=O)C(=O)[C@H]2NC(=O)c2ccc(Cl)cc2)c(F)c1 [Example 299]	9.2	1900
COc1cc(F)c([C@@H]2CN(c3cccnn3)C(=O)[C@H]2NC(=O)c2ccc(OC(F)F)cc2)c(F)c1 [Example 300]	9.3	360
COc1cc(F)c([C@H]2[C@H](NC(=O)c3ccc(OC(F)(F)F)cc3)C(=O)N(c3cccn(CCO)c3=O)[C@H]2C)c(F)c1 [Example 301]	9.3	150
COCCn1cccc(N2C[C@@H](c3c(F)cc(OC)cc3F)[C@H](NC(=O)c3ccc(OC(F)(F)F)cc3)C2=O)c1=O [Example 302]	10	22
COc1cc(F)c([C@@H]2CN(c3nc(N4CCN(C)CC4)ccc3OC)C(=O)[C@H]2NC(=O)c2ccc(OC(F)F)cc2)c(F)c1 [Example 303]	9.6	390
COc1cc(F)c([C@@H]2CN(c3cccn(C4COC4)c3=O)C(=O)[C@H]2NC(=O)c2ccc(OC(F)F)cc2)c(F)c1 [Example 304]	9.6	90
COc1cc(F)c([C@@H]2CN(c3cccnc3P(C)(C)=O)C(=O)[C@H]2NC(=O)c2ccc(Cl)cc2)c(F)c1 [Example 305]	9.6	1300
COc1cc(F)c([C@@H]2CN(c3cccn(CCN4CCS(=O)(=O)CC4)c3=O)C(=O)[C@H]2NC(=O)c2ccc(OC(F)F)cc2)c(F)c1 [Example 306]	9.8	250
COCC(CO)n1cccc(N2C[C@@H](c3ccc(Cl)cc3)[C@H](NC(=O)c3ccc(OC(F)F)cc3)C2=O)c1=O (some centres unmarked) [Example 307]	9.9	1.8
COc1cc(F)c([C@@H]2CN(c3cccn(CC(C)(C)O)c3=O)C(=O)[C@H]2NC(=O)c2ccc(OC(F)F)cc2)c(F)c1 [Example 308]	9.9	180
COc1cc(F)c([C@@H]2CN(c3c(C)ccn(C)c3=O)C(=O)[C@H]2NC(=O)c2ccc(OC(F)F)cc2)c(F)c1 [Example 310]	10	67
COc1cc(F)c([C@@H]2CN(c3c(C(F)(F)F)ccn(C)c3=O)C(=O)[C@H]2NC(=O)c2ccc(OC(F)F)cc2)c(F)c1 [Example 311]	10	1900
COc1ccc([C@@H]2CN(c3c(C)ccn(CC4CC4)c3=O)C(=O)[C@H]2NC(=O)c2ccc(OC(F)(F)F)cc2)c(F)c1 [Example 312]	10	0.5
COc1cc(F)c([C@@H]2CN(c3nc(C(C)(C)O)ccc3F)C(=O)[C@H]2NC(=O)c2ccc(Cl)cc2)c(F)c1 [Example 313]	10	5400
COc1cc(F)c([C@@H]2CN(c3c(C)ccn(CC(OC)C(F)(F)F)c3=O)C(=O)[C@H]2NC(=O)c2ccc(OC(F)F)cc2)c(F)c1 (some centres unmarked) [Example 314]	10	0.4
COCC(CO)n1cccc(N2C[C@@H](c3ccc(OC)cc3)[C@H](NC(=O)c3ccc(OC(F)F)cc3)C2=O)c1=O (some centres unmarked) [Example 315]	10	9.6
COc1cc(F)c([C@@H]2CN(c3nc(C4CCOCC4)ccc3F)C(=O)[C@H]2NC(=O)c2ccc(OC(F)F)cc2)c(F)c1 [Example 316]	10	95
COCC(C(=O)N(C)C)n1cccc(N2C[C@@H](c3ccc(Cl)cc3)[C@H](NC(=O)c3ccc(OC(F)F)cc3)C2=O)c1=O (some centres unmarked) [Example 317]	10	2.6
COc1cc(F)c([C@@H]2CN(c3nc(N4C[C@@H](C)N(C)[C@@H](C)C4)ccc3C#N)C(=O)[C@H]2NC(=O)c2ccc(Cl)cc2)c(F)c1 [Example 318]	10	> 10000
CCn1cccc(N2C[C@@H](c3c(F)cc(OC)cc3F)[C@H](NC(=O)c3ccc(C#N)cc3)C2=O)c1=O [Example 319]	10	200

More lines, now with the values ahead:

EC50 [1] [nM]	EC50 [2] [nM]	SMILES
7.7	1600	COc1cc(F)c([C@@H]2CN(c3cc(F)cc(C(C)(C)O)c3)C(=O)[C@H]2NC(=O)c2ccc(Cl)cc2)c(F)c1 [Example 267]
7.7	140	COCCn1cc(F)cc(N2C[C@@H](c3c(F)cc(OC)cc3F)[C@H](NC(=O)c3ccc(OC(F)F)cc3)C2=O)c1=O [Example 268]
7.7	27	COc1cc(F)c([C@@H]2CN(c3cccn(CC4CC(F)(F)C4)c3=O)C(=O)[C@H]2NC(=O)c2ccc(OC(F)(F)F)cc2)c(F)c1 [Example 269]
7.8	180	COc1cc(F)c([C@@H]2CN(c3nc(C4CCNCC4)ccc3C(F)(F)F)C(=O)[C@H]2NC(=O)c2ccc(OC(F)F)cc2)c(F)c1 [Example 270]
7.8	1400	COc1cc(F)c([C@@H]2CN(c3nc(NC4CCOC4)ccc3F)C(=O)[C@H]2NC(=O)c2ccc(OC(F)F)cc2)c(F)c1 (some centres unmarked) [Example 271]
7.8	14	COc1cc(F)c([C@@H]2CN(c3cccn(CC4CC4)c3=O)C(=O)[C@H]2NC(=O)c2ccc(OC(F)(F)F)cc2)c(F)c1 [Example 272]
7.8	1400	COc1cc(F)c([C@@H]2CN(c3cccn(CCO)c3=O)C(=O)[C@H]2NC(=O)c2ccc(C)cc2)c(F)c1 [Example 273]
8	6100	CNC(=O)C(C)Nc1ccnc(N2C[C@@H](c3c(F)cc(OC)cc3F)[C@H](NC(=O)c3ccc(Cl)cc3)C2=O)c1C(F)(F)F (some centres unmarked) [Example 275]
8	13	COCCn1cccc(N2C[C@@H](c3ccc(OC)cc3)[C@H](NC(=O)c3ccc(OC(F)F)cc3)C2=O)c1=O [Example 276]
8	210	COCCn1cccc(N2C[C@@H](c3c(F)cc(OC)cc3F)[C@H](NC(=O)c3ccc(C(F)(F)F)cc3)C2=O)c1=O [Example 277]
8.1	340	COc1cc(F)c([C@@H]2CN(c3cccn(CCN4CCOCC4)c3=O)C(=O)[C@H]2NC(=O)c2ccc(OC(F)(F)F)cc2)c(F)c1 [Example 278]
8.1	5800	COc1cc(F)c([C@@H]2CN(c3nccc(N4CCN(C)CC4)c3C(F)(F)F)C(=O)[C@H]2NC(=O)c2ccc(OC(F)F)cc2)c(F)c1 [Example 279]
8.2	26	COc1cc(F)c([C@@H]2CN(c3nc(N4CCCC4=O)ccc3F)C(=O)[C@H]2NC(=O)c2ccc(OC(F)F)cc2)c(F)c1 [Example 280]
8.2	560	COc1cc(F)c([C@@H]2CN(c3nccc(NCC(=O)NC4CC4)c3C(F)(F)F)C(=O)[C@H]2NC(=O)c2ccc(Cl)cc2)c(F)c1 [Example 281]
8.3	700	COc1cc(F)c([C@@H]2CN(c3nccc(N4CCN(S(C)(=O)=O)CC4)c3C(F)(F)F)C(=O)[C@H]2NC(=O)c2ccc(OC(F)F)cc2)c(F)c1 [Example 282]
8.4	19	COCC(C(=O)N(C)C)n1cccc(N2C[C@@H](c3c(F)cc(OC)cc3F)[C@H](NC(=O)c3ccc(OC(F)(F)F)cc3)C2=O)c1=O (some centres unmarked) [Example 283]
8.4	580	COc1cc(F)c([C@@H]2CN(c3nc(N4C[C@@H](C)N(C)[C@@H](C)C4)ccc3OC)C(=O)[C@H]2NC(=O)c2ccc(Cl)cc2)c(F)c1 [Example 284]
2.9	220	COc1cc(N2C[C@@H](c3c(F)cc(OC)cc3F)[C@H](NC(=O)c3ccc(OC(F)F)cc3)C2=O)nc(N2C[C@@H]3C[C@H]2CN3C)c1 [Example 285]
8.5	130	COc1cc(F)c([C@@H]2CN(c3c(Cl)ccn(C)c3=O)C(=O)[C@H]2NC(=O)c2ccc(OC(F)F)cc2)c(F)c1 [Example 286]
8.6	4600	COc1cc(F)c([C@@H]2CN(c3nccc(N4CCN(C)CC4)c3C#N)C(=O)[C@H]2NC(=O)c2ccc(Cl)cc2)c(F)c1 [Example 287]
8.6	0.8	COCCn1ccc(C)c(N2C[C@@H](c3ccc(OC)cc3F)[C@H](NC(=O)c3ccc(OC(F)(F)F)cc3)C2=O)c1=O [Example 288]
8.6	1800	CNC(=O)C(C)Nc1ccnc(N2C[C@@H](c3c(F)cc(OC)cc3F)[C@H](NC(=O)c3ccc(Cl)cc3)C2=O)c1C(F)(F)F (some centres unmarked) [Example 290]
8.7	6.6	COc1cc(F)c([C@@H]2CN(c3c(C)ccn(C)c3=O)C(=O)[C@H]2NC(=O)c2ccc(OC(F)(F)F)cc2)c(F)c1 [Example 291]
8.7	950	COCCn1cccc(N2C[C@@H](c3c(F)cc(OC)cc3F)[C@H](NC(=O)c3ccc(C)cc3)C2=O)c1=O [Example 292]
8.7	44	COCC(CO)n1cccc(N2C(=O)[C@@H](NC(=O)c3ccc(OC(F)(F)F)cc3)[C@H](c3c(F)cc(OC)cc3F)[C@@H]2C)c1=O (some centres unmarked) [Example 293]
8.8	9.1	COc1cc(F)c([C@@H]2CN(c3c(C)ccn(CC(O)C(F)(F)F)c3=O)C(=O)[C@H]2NC(=O)c2ccc(OC(F)F)cc2)c(F)c1 (some centres unmarked) [Example 294]

— patent US20230348426A1, “OXOPYRROLIDINE FPR2 AGONISTS” (Bristol-Myers Squibb Company, priority 2020, published 2023)
